One assay has as its system SW480 colon cancer cells. The assay is described as follows: Cell viability assay (CellTiter-Blue), four days. Particulars: Homo sapiens, 96 h; for inhibition at 10 µM: read-out: percent inhibition at 10 μM (given for EC50 of >10 μM); for EC50: CellTiter-Blue cell viability. Type of assay: cell-based. Here is the method: Representative compounds were screened using the following assay procedure to assess the effect on cell viability as described below.
Each compound was dissolved in DMSO as a 10 mM stock and used to prepare compound source plates. Serial dilution (1:3, 8-point dose-response curves from 10 μM to 0.0045 μM) and compound transfer was performed using the ECHO 550 (Labcyte, Sunnyvale, Calif.) into 96-well clear bottom, black-walled plates (Corning-Costar).
Approximately 2×10^3 SW480 colon cancer cells were seeded into each well and allowed to incubate in the presence or absence of compound for four days at 37° C./5% CO2. Eight replicates of DMSO-treated cells served as controls and cells treated with compound were performed in duplicate.
After incubation, 20 μL of CellTiter-Blue (Promega) was added to each well allowed to incubate for approximately 3 hours. This reagent was a buffered solution which contains resazurin, metabolically active cells were able to reduce rezarurin (blue) into resorufin (pink) which was highly fluorescent. This measured fluorescence was used as a readout for cell viability.
After incubation, the plates were read at Ex 560 nm Em 590 nm (Cytation 3, BioTek). Dose-response curves were generated and EC50 concentration values were calculated using non-linear regression curve fit in the GraphPad Prism (San Diego, Calif.) or Dotmatics' Studies Software (Bishops Stortford, UK). For EC50 of >10 μM, the percent inhibition at 10 μM is provided.
(In general: Resazurin is reduced to fluorescent resorufin, in cell work by metabolically active cells.)

In assay [1] the test system is Wnt activity (Wnt-responsive human Sp5 promoter, TCF/LEF binding sites) in SW480 colon carcinoma cells. The assay is described as follows: Wnt activity screening assay: Sp5-Luc luciferase reporter gene in SW480 cells. Format: cell-based. To be noted: for EC50: 10-point dose-response from 10 μM, incubated overnight; for inhibition at 10 µM: given for EC50 of >10 μM, read-out: percent inhibition at 10 μM. The text has this: The screening assay for Wnt activity is described as follows. Reporter cell lines can be generated by stably transducing cancer cell lines (e.g., colon cancer) or primary cells (e.g., IEC-6 intestinal cells) with a lentiviral construct that includes a Wnt-responsive promoter driving expression of the firefly luciferase gene.
SW480 colon carcinoma cells were transduced with a lentiviral vector expressing luciferase with a human Sp5 promoter consisting of a sequence of eight TCF/LEF binding sites. SW480 cells stably expressing the Sp5-Luc reporter gene and a hygromycin resistance gene were selected by treatment with 150 μg/mL of hygromycin for 7 days. These stably transduced SW480 cells were expanded in cell culture and used for all further screening activities. Each compound was dissolved in DMSO as a 10 mM stock and used to prepare compound source plates. Serial dilution (1:3, 10-point dose-response curves starting from 10 μM) and compound transfer was performed using the ECHO 550 (Labcyte, Sunnyvale, Calif.) into 384-well white solid bottom assay plates (Greiner Bio-One) with appropriate DMSO backfill for a final DMSO concentration of 0.1%. For Sp5-Luc reporter gene assays, the cells were plated at 4,000 cells/well in 384-well plates with medium containing 1% fetal bovine serum and incubated overnight at 37° C. and 5% CO2. Following incubation, 20 μl of BrightGlo luminescence reagent (Promega) was added to each well of the 384-well assay plates. The plates were placed on an orbital shaker for 2 min and then luminescence was quantified using the Envision (Perkin Elmer) plate reader. Readings were normalized to DMSO only treated cells, and normalized activities were utilized for EC50 calculations using the dose-response log (inhibitor) vs. response-variable slope (four parameters) nonlinear regression feature available in GraphPad Prism 5.0 (or Dotmatics). For EC50 of >10 μM, the percent inhibition at 10 μM is provided.
(In general: In a reporter assay the amount or activity of a reporter protein is the signal.)

On to `CC(C)(C)CC(=O)Nc1cncc(-c2ccc3[nH]nc(-c4nc5c(-c6ccccc6F)nccc5[nH]4)c3n2)c1` [Compound 72, N-(5-(3-(4-(2-fluorophenyl)-1H-imidazo[4,5-c]pyridin-2-yl)-1H-pyrazolo [4,3-b]pyridin-5-yl)pyridin-3-yl)-3,3-dimethylbutanamide], for which, in the assay on SW480 colon cancer cells, the inhibition at 10 µM is 4.1% and the EC50 was > 10 µM. In assay [1], the EC50 was > 10 µM and the inhibition at 10 µM is 8.1%.
Take `O=C(Nc1cncc(-c2ccc3[nH]nc(-c4nc5c(-c6ccccc6F)nccc5[nH]4)c3n2)c1)C1CCCC1` [Compound 78, N-(5-(3-(4-(2-Fluorophenyl)-1H-imidazo[4,5-c]pyridin-2-yl)-1H-pyrazolo [4,3-b]pyridin-5-yl)pyridin-3-yl)cyclopentanecarboxamide]: in the assay on SW480 colon cancer cells, the inhibition at 10 µM amounted to 19.8% and the EC50 is > 10 µM. Besides, in assay [1], the concentration giving a half-maximal response (EC50) was > 10 µM and the inhibition at 10 µM came out at 14.8%.
As for `Fc1ccccc1-c1nccc2[nH]c(-c3n[nH]c4ccc(-c5cncc(CNCC6CCCC6)c5)nc34)nc12` [Compound 81, 1-Cyclopentyl-N-((5-(3-(4-(2-fluorophenyl)-1H-imidazo[4,5-c]pyridin-2-yl)-1H-pyrazolo[4,3-b]pyridin-5-yl)pyridin-3-yl)methyl)methanamine], the results for the EC50 (in the assay with SW480 colon cancer cells; in assay [1]) were 1.08 µM and 1.11 µM, respectively.
In the case of `Fc1ccccc1-c1nccc2[nH]c(-c3n[nH]c4ccc(-c5ccccn5)nc34)nc12` [Compound 84, 3-(4-(2-Fluorophenyl)-1H-imidazo[4,5-c]pyridin-2-yl)-5-(pyridin-2-yl)-1H-pyrazolo[4,3-b]pyridine], in the assay with SW480 colon cancer cells, the inhibition at 10 µM amounted to 0% and the concentration for a half-maximal effect (EC50) is > 10 µM. Moreover, the EC50 in assay [1] was 0.384 µM.
In the case of `c1cc(-c2ccc3[nH]nc(-c4nc5c(-c6ccncc6)nccc5[nH]4)c3n2)ccn1` [Compound 130, 5-(pyridin-4-yl)-3-(4-(pyridin-4-yl)-1H-imidazo[4,5-c]pyridin-2-yl)-1H-pyrazolo[4,3-b]pyridine], in the assay with SW480 colon cancer cells, the inhibition at 10 µM came out at 0% and the EC50 was > 10 µM. For the same compound, in assay [1], the EC50 is > 10 µM and the inhibition at 10 µM came to 7.5%.
In the case of `O=C(Nc1cncc(-c2ccc3[nH]nc(-c4nc5c(-c6ccncc6)nccc5[nH]4)c3n2)c1)C1CCCCC1` [Compound 135, N-(5-(3-(4-(pyridin-4-yl)-1H-imidazo[4,5-c]pyridin-2-yl)-1H-pyrazolo[4,3-b]pyridin-5-yl)pyridin-3-yl)cyclohexanecarboxamide], the inhibition at 10 µM in the assay on SW480 colon cancer cells came to 1%; in assay [1] it was 2.8%. Also, the EC50 (in the assay with SW480 colon cancer cells; in assay [1]) was > 10 µM in each case.
Regarding `O=C(Nc1cncc(-c2ccc3[nH]nc(-c4nc5c(-c6ccccn6)nccc5[nH]4)c3n2)c1)c1ccccc1` [Compound 151, N-(5-(3-(4-(Pyridin-2-yl)-1H-imidazo[4,5-c]pyridin-2-yl)-1H-pyrazolo[4,3-b]pyridin-5-yl)pyridin-3-yl)benzamide], in the assay with SW480 colon cancer cells, the inhibition at 10 µM worked out at 1.6% and the EC50 was > 10 µM. In assay [1], the EC50 was > 10 µM and the inhibition at 10 µM stood at 9.9%.
As for `O=C(Nc1cncc(-c2ccc3[nH]nc(-c4nc5c(N6CCCCC6)nccc5[nH]4)c3n2)c1)C1CC1` [Compound 188, N-(5-(3-(4-(Piperidin-1-yl)-1H-imidazo[4,5-c]pyridin-2-yl)-1H-pyrazolo [4,3-b]pyridin-5-yl)pyridin-3-yl)cyclopropanecarboxamide], in the assay with SW480 colon cancer cells, the inhibition at 10 µM came to 10.5% and the EC50 is > 10 µM. For the same compound, in assay [1], the EC50 was > 10 µM and the inhibition at 10 µM is 19%.
Consider `CN1CCN(c2nccc3[nH]c(-c4n[nH]c5ccc(-c6cncc(NC(=O)C7CCCC7)c6)nc45)nc23)CC1` [Compound 246, N-(5-(3-(4-(4-Methylpiperazin-1-yl)-1H-imidazo[4,5-c]pyridin-2-yl)-1H-pyrazolo [4,3-b]pyridin-5-yl)pyridin-3-yl)cyclopentanecarboxamide], for which, in the assay on SW480 colon cancer cells, the inhibition at 10 µM was 0% and the EC50 was > 10 µM. For the same compound, in assay [1], the EC50 was > 10 µM and the inhibition at 10 µM is 15%.
With `CN1CCN(c2nccc3[nH]c(-c4n[nH]c5ccc(-c6cncnc6)nc45)nc23)CC1` [Compound 251, 3-(4-(4-Methylpiperazin-1-yl)-1H-imidazo[4,5-c]pyridin-2-yl)-5-(pyrimidin-5-yl)-1H-pyrazolo[4,3-b]pyridine], in the assay on SW480 colon cancer cells, the inhibition at 10 µM is 0% and the EC50 is > 10 µM. Moreover, in assay [1], the concentration giving a half-maximal response (EC50) is > 10 µM and the inhibition at 10 µM amounted to 17.7%.
`O=C(Cc1ccccc1)Nc1cncc(-c2ccc3[nH]nc(-c4nc5cnccc5[nH]4)c3n2)c1` [Compound 262, N-(5-(3-(1H-imidazo[4,5-c]pyridin-2-yl)-1H-pyrazolo[4,3-b]pyridin-5-yl)pyridin-3-yl)-2-phenylacetamide]: the inhibition at 10 µM in the assay on SW480 colon cancer cells stood at 2.2%; in assay [1] it was 12.9%. Besides, the EC50 (in the assay on SW480 colon cancer cells; in assay [1]) was > 10 µM in each case.
As for `O=C(Nc1cncc(-c2ccc3[nH]nc(-c4nc5cnccc5[nH]4)c3n2)c1)C1CCCCC1` [Compound 275, N-(5-(3-(1H-Imidazo[4,5-c]pyridin-2-yl)-1H-pyrazolo[4,3-b]pyridin-5-yl)pyridin-3-yl)cyclohexanecarboxamide], in the assay with SW480 colon cancer cells, the inhibition at 10 µM is 0% and the EC50 is > 10 µM. Moreover, in assay [1], the EC50 is > 10 µM and the inhibition at 10 µM came out at 0%.
Take `O=C(Nc1cncc(-c2ccc3[nH]nc(-c4nc5c(-c6ccsc6)nccc5[nH]4)c3n2)c1)c1ccccc1` [Compound 291, N-(5-(3-(4-(Thiophen-3-yl)-1H-imidazo[4,5-c]pyridin-2-yl)-1H-pyrazolo [4,3-b]pyridin-5-yl)pyridin-3-yl)benzamide]: the results for the inhibition at 10 µM (with SW480 colon cancer cells; in assay [1]) were 2% and 3.3%, respectively. Further, the EC50 (in the assay on SW480 colon cancer cells; in assay [1]) was > 10 µM each time.
For the compound `c1ccc(CNCc2cncc(-c3ccc4[nH]nc(-c5nc6c(-c7ccsc7)nccc6[nH]5)c4n3)c2)cc1` [Compound 304, N-Benzyl-1-(5-(3-(4-(thiophen-3-yl)-1H-imidazo[4,5-c]pyridin-2-yl)-1H-pyrazolo [4,3-b]pyridin-5-yl)pyridin-3-yl)methanamine], the results for the EC50 (in the assay with SW480 colon cancer cells; in assay [1]) were 3.91 µM and 3.65 µM, respectively.
In the same order, the values of `c1cc2[nH]c(-c3n[nH]c4ccc(-c5cncc(CNCC6CCCC6)c5)nc34)nc2c(-c2ccoc2)n1` [Compound 333, 1-Cyclopentyl-N-((5-(3-(4-(furan-3-yl)-1H-imidazo[4,5-c]pyridin-2-yl)-1H-pyrazolo [4,3-b]pyridin-5-yl)pyridin-3-yl)methyl)methanamine] are 3.42 µM and 3.82 µM.
`CN1CCN(c2nccc3[nH]c(-c4n[nH]c5ccc(-c6cnccn6)nc45)nc23)CC1` [Compound 648, 3-(4-(4-Methylpiperazin-1-yl)-1H-imidazo[4,5-c]pyridin-2-yl)-5-(pyrazin-2-yl)-1H-pyrazolo[4,3-b]pyridine]: the inhibition at 10 µM with SW480 colon cancer cells came to 5.4%; in assay [1], 1%. The EC50 (in the assay on SW480 colon cancer cells; in assay [1]) was > 10 µM in each case.
As for `c1cc2[nH]c(-c3n[nH]c4ccc(-c5cn[nH]c5)nc34)nc2cn1` [Compound 651, 3-(1H-Imidazo[4,5-c]pyridin-2-yl)-5-(1H-pyrazol-4-yl)-1H-pyrazolo[4,3-b]pyridine], in the assay with SW480 colon cancer cells, the inhibition at 10 µM turned out to be 13.5% and the EC50 was > 10 µM. In assay [1], the EC50 is > 10 µM and the inhibition at 10 µM was 22.3%.
For the compound `c1cc2[nH]c(-c3n[nH]c4ccc(-c5cncc(OC6CCNCC6)c5)nc34)nc2cn1` [Compound 656, 3-(1H-Imidazo[4,5-c]pyridin-2-yl)-5-(5-(piperidin-4-yloxy)pyridin-3-yl)-1H-pyrazolo[4,3-b]pyridine], in the assay on SW480 colon cancer cells, the inhibition at 10 µM stood at 10.9% and the EC50 was > 10 µM. For the same compound, in assay [1], the EC50 is > 10 µM and the inhibition at 10 µM turned out to be 15.4%.

A word on the inhibition: it is the relative decrease from the control value, in per cent. The term EC50 denotes the concentration needed to bring the measured effect to its halfway point. A high value points to lower potency in that assay.

For the origin of these results see patent US10195185B2, “3-(1H-imidazo[4,5-C]pyridin-2-yl)-1H-pyrazolo[4,3-B]pyridines and therapeutic uses thereof” (Samumed, LLC, priority 2015, dated 2019).
